From publication PMC10397291, “Molecular pathway and structural mechanism of human oncochannel TRPV6 inhibition by the phytocannabinoid tetrahydrocannabivarin” (Nature Communications, 2023)
Numbering of substitutions follows the chain as printed. In brackets after ≈: the same amount, converted by molar mass. Several values for one entry are separate records, joined by “and”; a condition that tells them apart may be missing. Identical values can stand only once.

Key:
L490W mutant hTRPV6 = target: T1, L490W mutant hTRPV6 (Homo sapiens, UniProt Q9H1D0, L530W); assay: Fura-2 AM Ca2+ uptake, L490W mutant hTRPV6; format: cell-based; details: for change in F340/F380 evoked by 10 mM Ca2+ / Ca2+ uptake activation by calcium (source data Suppl. Fig. 4m): replicates
T1 construct: Full-length wild-type or mutant human TRPV6 was expressed in HEK 293S cells as described above; expressed in transfected cells; host or cells: HEK 293S GnTI- (baculovirus/BacMam transduction)
T1 sequence (Q9H1D0 41-765 L530W limits assumed): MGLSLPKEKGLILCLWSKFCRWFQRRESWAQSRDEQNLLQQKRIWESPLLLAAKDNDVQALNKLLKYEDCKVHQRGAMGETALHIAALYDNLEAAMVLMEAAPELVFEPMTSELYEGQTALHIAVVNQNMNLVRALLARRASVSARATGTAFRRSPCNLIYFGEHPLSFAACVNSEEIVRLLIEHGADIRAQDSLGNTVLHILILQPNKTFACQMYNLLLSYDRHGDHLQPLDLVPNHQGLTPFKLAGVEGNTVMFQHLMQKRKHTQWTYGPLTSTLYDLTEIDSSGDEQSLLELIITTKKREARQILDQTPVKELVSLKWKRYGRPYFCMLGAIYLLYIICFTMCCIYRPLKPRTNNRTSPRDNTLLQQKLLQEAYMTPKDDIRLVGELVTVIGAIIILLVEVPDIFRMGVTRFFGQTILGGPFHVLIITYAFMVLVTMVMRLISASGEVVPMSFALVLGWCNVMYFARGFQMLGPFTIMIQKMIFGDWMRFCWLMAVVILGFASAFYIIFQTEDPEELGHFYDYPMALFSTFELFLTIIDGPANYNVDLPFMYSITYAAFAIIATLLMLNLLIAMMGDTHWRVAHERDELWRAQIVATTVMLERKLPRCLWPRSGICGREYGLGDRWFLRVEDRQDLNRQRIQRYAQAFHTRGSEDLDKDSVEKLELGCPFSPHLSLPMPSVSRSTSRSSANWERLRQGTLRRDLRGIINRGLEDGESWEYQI

M497A mutant hTRPV6 = target: T2, M497A mutant hTRPV6 (Homo sapiens, UniProt Q9H1D0, M537A); assay: Fura-2 AM Ca2+ uptake, M497A mutant hTRPV6; format: cell-based; details: for change in F340/F380 evoked by 10 mM Ca2+ / Ca2+ uptake activation by calcium (source data Suppl. Fig. 4m): replicates
T2 construct: Full-length wild-type or mutant human TRPV6 was expressed in HEK 293S cells as described above; expressed in transfected cells; host or cells: HEK 293S GnTI- (baculovirus/BacMam transduction)
T2 sequence (Q9H1D0 41-765 M537A limits assumed): T1 sequence (Q9H1D0 41-765 L530W limits assumed) with W490L, M497A

T567A mutant hTRPV6 = target: T3, T567A mutant hTRPV6 (Homo sapiens, UniProt Q9H1D0, T607A); assay: Fura-2 AM Ca2+ uptake, T567A mutant hTRPV6; format: cell-based
T3 construct: Full-length wild-type or mutant human TRPV6 was expressed in HEK 293S cells as described above; expressed in transfected cells; host or cells: HEK 293S GnTI- (baculovirus/BacMam transduction)
T3 sequence (Q9H1D0 41-765 T607A limits assumed): T1 sequence (Q9H1D0 41-765 L530W limits assumed) with W490L, T567A

[1] = test system: non-transfected HEK293 cells; assay: Fura-2 AM measurements in non-transfected cells (Control, non-specific effects); format: cell-based
[2] = Solubility of stock in DMSO; format: physicochemical; details: organic solvent or mixture

CCCc1cc(O)c2c(c1)OC(C)(C)[C@@H]1CCC(C)=C[C@@H]21 [THCV, tetrahydrocannabivarin]
IC50 (L490W mutant hTRPV6): 2.34 ± 0.32 µM | change in F340/F380 evoked by 10 mM Ca2+ (L490W mutant hTRPV6; 1 μM THCV): 1.577 and 1.505 and 1.598 and 1.450 and 1.583 and 1.560 and 1.332 and 1.317 | change in F340/F380 evoked by 10 mM Ca2+ (L490W mutant hTRPV6; 3 μM THCV): 1.310 and 1.501 and 1.475 and 1.350 and 1.245 and 1.304 and 1.335 and 1.291 | change in F340/F380 evoked by 10 mM Ca2+ (L490W mutant hTRPV6; 10 μM THCV): 1.236 and 1.242 and 1.318 and 1.087 and 1.139 and 1.088 and 1.104 and 1.106 | change in F340/F380 evoked by 10 mM Ca2+ (L490W mutant hTRPV6; 30 μM THCV): 1.189 and 1.094 and 1.026 and 1.168 and 1.016 and 1.134 and 1.055 and 1.014 | change in F340/F380 evoked by 10 mM Ca2+ (L490W mutant hTRPV6; 100 μM THCV): 1.153 and 1.032 and 1.079 and 1.107 and 1.527 and 2.184 and 1.414 and 1.160 | incomplete part of the inhibition (L490W mutant hTRPV6; L490W): ~ 50% | IC50 (M497A mutant hTRPV6): 97.7 ± 45.2 µM | change in F340/F380 evoked by 10 mM Ca2+ (M497A mutant hTRPV6; 1 μM THCV): 1.142 and 1.086 and 1.141 and 0.991 | change in F340/F380 evoked by 10 mM Ca2+ (M497A mutant hTRPV6; 3 μM THCV): 1.165 and 1.081 and 1.011 and 1.006 | change in F340/F380 evoked by 10 mM Ca2+ (M497A mutant hTRPV6; 10 μM THCV): 1.000 and 1.007 and 0.946 and 1.069 | change in F340/F380 evoked by 10 mM Ca2+ (M497A mutant hTRPV6; 30 μM THCV): 0.980 and 0.887 and 0.924 and 0.905 | change in F340/F380 evoked by 10 mM Ca2+ (M497A mutant hTRPV6; 100 μM THCV): 0.761 and 0.822 and 0.918 and 0.790 | IC50 (T567A mutant hTRPV6): 12 ± 0.7 µM | change in F340/F380 evoked by 10 mM Ca2+ (T567A mutant hTRPV6; 1 μM THCV, replicates): 1.267 | change in F340/F380 evoked by 10 mM Ca2+ ([1]; 1 μM THCV, non-transfected Control for L490W): 0.594 and 0.640 and 0.727 and 0.615 and 0.755 and 0.577 and 0.626 and 0.554 | change in F340/F380 evoked by 10 mM Ca2+ ([1]; 1 μM THCV, non-transfected Control for L568Q): 0.236 and 0.186 and 0.230 and 0.259 | change in F340/F380 evoked by 10 mM Ca2+ ([1]; 1 μM THCV, non-transfected Control for WT): 0.249 and 0.167 and 0.182 and 0.175 and 0.226 and 0.257 and 0.284 | change in F340/F380 evoked by 10 mM Ca2+ ([1]; 3 μM THCV, non-transfected Control for A561W): 0.179 and 0.153 and 0.129 and 0.145 | change in F340/F380 evoked by 10 mM Ca2+ ([1]; 3 μM THCV, non-transfected Control for L490W): 0.538 and 0.676 and 0.767 and 0.653 and 0.598 and 0.662 and 0.719 and 0.624 | change in F340/F380 evoked by 10 mM Ca2+ ([1]; 3 μM THCV, non-transfected Control for L568Q): 0.250 and 0.211 and 0.221 and 0.198 | change in F340/F380 evoked by 10 mM Ca2+ ([1]; 3 μM THCV, non-transfected Control for WT): 0.179 and 0.155 and 0.221 and 0.163 and 0.257 and 0.246 and 0.260 and 0.248 | change in F340/F380 evoked by 10 mM Ca2+ ([1]; 10 μM THCV, non-transfected Control for A561W): 0.140 and 0.130 and 0.114 and 0.151 | change in F340/F380 evoked by 10 mM Ca2+ ([1]; 10 μM THCV, non-transfected Control for L490W): 0.786 and 0.674 and 0.776 and 0.581 and 0.711 and 0.793 and 0.539 and 0.598 | change in F340/F380 evoked by 10 mM Ca2+ ([1]; 10 μM THCV, non-transfected Control for L568Q): 0.183 and 0.286 and 0.214 and 0.195 | change in F340/F380 evoked by 10 mM Ca2+ ([1]; 10 μM THCV, non-transfected Control for WT): 0.157 and 0.141 and 0.174 and 0.159 and 0.185 and 0.222 and 0.233 and 0.195 | change in F340/F380 evoked by 10 mM Ca2+ ([1]; 30 μM THCV, non-transfected Control for A561W): 0.167 and 0.140 and 0.127 and 0.125 | change in F340/F380 evoked by 10 mM Ca2+ ([1]; 30 μM THCV, non-transfected Control for L490W): 0.558 and 0.549 and 0.721 and 0.691 and 0.606 and 0.572 and 0.500 and 0.698 | change in F340/F380 evoked by 10 mM Ca2+ ([1]; 30 μM THCV, non-transfected Control for L568Q): 0.187 and 0.206 and 0.233 | change in F340/F380 evoked by 10 mM Ca2+ ([1]; 30 μM THCV, non-transfected Control for WT): 0.137 and 0.141 and 0.135 and 0.156 and 0.185 and 0.188 and 0.221 and 0.228 | change in F340/F380 evoked by 10 mM Ca2+ ([1]; 100 μM THCV, non-transfected Control for A561W): 0.497 | change in F340/F380 evoked by 10 mM Ca2+ ([1]; 100 μM THCV, non-transfected Control for L490W): 0.627 and 0.939 and 0.740 and 0.797 and 0.911 and 0.811 and 1.132 and 0.767 | change in F340/F380 evoked by 10 mM Ca2+ ([1]; 100 μM THCV, non-transfected Control for WT): 0.644 | solubility [2]: 50 mM (≈ 14.3 mg/mL)

[Ca+2] [Ca2+, calcium]
EC50 (L490W mutant hTRPV6; L490W, n = 3, read-out: EC50, Ca2+ uptake activation by calcium): 1330 ± 40 µM | Ca2+ uptake activation by calcium (source data Suppl. Fig. 4m) (L490W mutant hTRPV6; [Ca2+] 0.1 μM as printed): 0.055 and 0.029 and 0.076 | Ca2+ uptake activation by calcium (source data Suppl. Fig. 4m) (L490W mutant hTRPV6; [Ca2+] 0.3 μM): 0.246 and 0.202 and 0.170 | Ca2+ uptake activation by calcium (source data Suppl. Fig. 4m) (L490W mutant hTRPV6; [Ca2+] 1 μM): 0.417 and 0.431 and 0.439 | Ca2+ uptake activation by calcium (source data Suppl. Fig. 4m) (L490W mutant hTRPV6; [Ca2+] 3 μM): 0.619 and 0.754 and 0.449 | Ca2+ uptake activation by calcium (source data Suppl. Fig. 4m) (L490W mutant hTRPV6; [Ca2+] 10 μM): 0.893 and 0.932 and 0.788 | Ca2+ uptake activation by calcium (source data Suppl. Fig. 4m) (L490W mutant hTRPV6; [Ca2+] 30 μM): 0.925 and 0.948 and 1.069 | EC50 (M497A mutant hTRPV6; M497A, n = 3, read-out: EC50, Ca2+ uptake activation by calcium): 1050 ± 120 µM | Ca2+ uptake activation by calcium (source data Suppl. Fig. 4m) (M497A mutant hTRPV6; [Ca2+] 0.03 μM): 0.073 and 0.045 and 0.053 | Ca2+ uptake activation by calcium (source data Suppl. Fig. 4m) (M497A mutant hTRPV6; [Ca2+] 0.1 μM as printed): 0.118 and 0.116 and 0.097 | Ca2+ uptake activation by calcium (source data Suppl. Fig. 4m) (M497A mutant hTRPV6; [Ca2+] 0.3 μM): 0.315 and 0.282 and 0.272 | Ca2+ uptake activation by calcium (source data Suppl. Fig. 4m) (M497A mutant hTRPV6; [Ca2+] 1 μM): 0.544 and 0.449 and 0.475 | Ca2+ uptake activation by calcium (source data Suppl. Fig. 4m) (M497A mutant hTRPV6; [Ca2+] 3 μM): 0.725 and 0.634 and 0.633 | Ca2+ uptake activation by calcium (source data Suppl. Fig. 4m) (M497A mutant hTRPV6; [Ca2+] 10 μM): 0.853 and 0.680
